molecular target: recombinant human LRRK2 (catalytic domain only [amino acids 970-2527], GST-tagged) (Homo sapiens (Human), UniProt Q5S007); assay: LRRK2 Enzymatic Assay; assay type: biochemical; settings: LRRKtide substrate, [32P]-ATP
Method in brief: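 GST-tagged catalytic domain (aa 970-2527) at 30 nM with 20 μM LRRKtide in HEPES pH 7.5/MgCl2 buffer, 1% DMSO; compounds (10 μM to 0.5 nM) preincubated 20 min, then [32P]-ATP added for 2 h at room temperature. P81 phosphocellulose capture; activity as % of vehicle, IC50 by curve fit.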

Sequence of recombinant human LRRK2 (catalytic domain only [amino acids 970-2527], GST-tagged) (Q5S007 970-2527): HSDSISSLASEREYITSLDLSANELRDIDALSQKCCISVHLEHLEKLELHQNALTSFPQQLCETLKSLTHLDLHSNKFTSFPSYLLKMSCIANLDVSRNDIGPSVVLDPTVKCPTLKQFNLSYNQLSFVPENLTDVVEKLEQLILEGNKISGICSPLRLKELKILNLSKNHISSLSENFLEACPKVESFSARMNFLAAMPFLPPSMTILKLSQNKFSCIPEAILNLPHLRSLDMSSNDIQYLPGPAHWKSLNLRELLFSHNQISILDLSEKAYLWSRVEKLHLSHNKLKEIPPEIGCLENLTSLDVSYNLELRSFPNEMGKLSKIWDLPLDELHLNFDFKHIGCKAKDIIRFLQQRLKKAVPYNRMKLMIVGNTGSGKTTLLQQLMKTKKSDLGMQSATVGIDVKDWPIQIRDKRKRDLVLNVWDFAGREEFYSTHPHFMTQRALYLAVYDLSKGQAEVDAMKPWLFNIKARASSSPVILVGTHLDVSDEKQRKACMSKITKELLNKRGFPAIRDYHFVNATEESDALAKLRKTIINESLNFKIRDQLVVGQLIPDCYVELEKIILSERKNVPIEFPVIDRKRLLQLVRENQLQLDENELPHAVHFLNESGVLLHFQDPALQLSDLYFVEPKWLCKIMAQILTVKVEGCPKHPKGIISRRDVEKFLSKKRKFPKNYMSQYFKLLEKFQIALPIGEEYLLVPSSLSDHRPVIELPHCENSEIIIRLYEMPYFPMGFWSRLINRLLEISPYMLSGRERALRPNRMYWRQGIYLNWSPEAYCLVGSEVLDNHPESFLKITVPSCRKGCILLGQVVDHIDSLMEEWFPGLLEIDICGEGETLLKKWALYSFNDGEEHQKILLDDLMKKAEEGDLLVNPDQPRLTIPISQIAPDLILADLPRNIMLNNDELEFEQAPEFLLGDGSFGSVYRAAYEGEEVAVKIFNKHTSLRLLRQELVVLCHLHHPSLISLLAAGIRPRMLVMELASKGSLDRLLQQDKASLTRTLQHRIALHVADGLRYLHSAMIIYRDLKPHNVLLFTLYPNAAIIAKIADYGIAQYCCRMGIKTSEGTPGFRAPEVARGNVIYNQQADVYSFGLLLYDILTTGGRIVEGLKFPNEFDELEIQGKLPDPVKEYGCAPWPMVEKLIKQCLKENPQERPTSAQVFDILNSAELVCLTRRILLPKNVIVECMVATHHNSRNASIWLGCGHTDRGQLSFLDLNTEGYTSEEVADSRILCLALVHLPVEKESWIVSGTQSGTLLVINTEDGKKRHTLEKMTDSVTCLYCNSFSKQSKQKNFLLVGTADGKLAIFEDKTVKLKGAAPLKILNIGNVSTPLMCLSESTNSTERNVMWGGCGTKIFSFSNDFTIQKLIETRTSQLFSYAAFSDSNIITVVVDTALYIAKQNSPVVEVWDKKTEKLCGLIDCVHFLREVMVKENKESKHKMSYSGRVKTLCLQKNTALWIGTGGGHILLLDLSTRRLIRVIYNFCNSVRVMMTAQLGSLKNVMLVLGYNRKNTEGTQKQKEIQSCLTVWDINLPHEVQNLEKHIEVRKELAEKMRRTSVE

Structure (SMILES)	IC50
O[C@H]1CC[C@H](COc2nc(Nc3cnn(C(F)(F)F)c3)ncc2F)CC1 [Example 222, (1R,4R)-4-(((5-fluoro-2-((1-(trifluoromethyl)-1H-pyrazol-4-yl)amino)pyrimidin-4-yl)oxy)methyl)cyclohexan-1-ol]	> 400 nM
COc1cnc(Nc2ccc(N3CCOCC3)cc2)nc1OCC1CCC(F)(F)CC1 [Example 156, 4-((4,4-difluorocyclohexyl)methoxy)-5-methoxy-N-(4-morpholinophenyl)pyrimidin-2-amine]	50 to 200 nM
CC(=O)N[C@H]1CC[C@H](COc2nc(Nc3cnn(C)c3)ncc2F)CC1 [Example 183, N-((1R,4R)-4-(((5-fluoro-2-((1-methyl-1H-pyrazol-4-yl)amino)pyrimidin-4-yl)oxy)methyl)cyclo-hexyl)acetamide]	50 to 200 nM
Cc1nn(C(C)(C)C#N)cc1Nc1ncc(F)c(OC[C@H]2CC[C@@H](O)[C@H](F)C2)n1 [Example 259]	< 50 nM
CCN1CCN(c2ccc(Nc3nccc(OCC4CCC(O)CC4)n3)nc2)CC1 (centres unmarked) [Example 133, 4-(((2-((5-(4-ethylpiperazin-1-yl)pyridin-2-yl)amino)pyrimidin-4-yl)oxy)methyl)cyclohexan-1-ol]	> 400 nM
Clc1cnc(Nc2ccc(N3CCOCC3)cc2)nc1OCC1CCOCC1 [Example 148, 5-chloro-N-(4-morpholinophenyl)-4-((tetrahydro-2H-pyran-4-yl)methoxy)pyrimidin-2-amine]	< 50 nM
Cc1nn(C(C)(C)C#N)cc1Nc1ncc(F)c(OCC2CCC(C)(O)CC2)n1 (centres unmarked) [Example 253, 2-(4-((5-fluoro-4-((4-hydroxy-4-methylcyclohexyl)methoxy)pyrimidin-2-yl)amino)-3-methyl-1H-pyrazol-1-yl)-2-methylpropanenitrile]	< 50 nM
Cc1nn(C(C)(C)C#N)cc1Nc1ncc(Cl)c(OCC2CNC2)n1 [Example 27, 2-(4-((4-(azetidin-3-ylmethoxy)-5-chloropyrimidin-2-yl)amino)-3-methyl-1H-pyrazol-1-yl)-2-methylpropanenitrile]	> 400 nM
CC(C)(O)[C@H]1CC[C@H](COc2ccnc(Nc3ccc(N4CCOCC4)cc3)n2)CC1 [Example 136, 2-((1R,4R)-4-(((2-((4-morpholinophenyl)amino)pyrimidin-4-yl)oxy)methyl)cyclohexyl)propan-2-ol]	50 to 200 nM
Cc1nn(C2CC(C#N)C2)cc1Nc1ncc(Cl)c(OCC2(F)CCN(C)CC2)n1 (centres unmarked) [Example 62, 3-(4-((5-chloro-4-((4-fluoro-1-methylpiperidin-4-yl)methoxy)pyrimidin-2-yl)amino)-3-methyl-1H-pyrazol-1-yl)cyclobutane-1-carbonitrile]	200 to 400 nM
CC(=O)N[C@H]1CC[C@H](COc2nc(Nc3cnn(C4COC4)c3)ncc2F)CC1 [Example 192, N-((1R,4R)-4-(((5-fluoro-2-((1-(oxetan-3-yl)-1H-pyrazol-4-yl)amino)pyrimidin-4-yl)oxy)methyl)cyclo-hexyl)acetamide]	50 to 200 nM
C[C@@H]1CN(c2ccc(Nc3ncc(F)c(OCC4CCC(C#N)CC4)n3)cc2)C[C@H](C)O1 (mixture of isomers) [Example 273, 4-(((2-((4-((2S,6R)-2,6-dimethylmorpholino)phenyl)amino)-5-fluoropyrimidin-4-yl)oxy)methyl)cyclohexane-1-carbonitrile]	< 50 nM
Fc1cnc(Nc2ccc(N3CCOCC3)cc2)nc1OCC1CCC(F)(F)CC1 [Example 268, 4-((4,4-difluorocyclohexyl)methoxy)-5-fluoro-N-(4-morpholinophenyl)pyrimidin-2-amine]	50 to 200 nM
Cc1nn(C2CC(C#N)C2)cc1Nc1ncc(Cl)c(OCC2CCC(O)CC2)n1 (centres unmarked) [Example 122, 3-(4-((5-chloro-4-((4-hydroxycyclohexyl)methoxy)pyrimidin-2-yl)amino)-3-methyl-1H-pyrazol-1-yl)cyclobutane-1-carbonitrile]	< 50 nM
FC(F)CN[C@H]1CC[C@H](COc2nc(Nc3cccc(N4CCOCC4)c3)ncc2Cl)CC1 [Example 107, 5-chloro-4-(((1R,4R)-4-((2,2-difluoro-ethyl)amino)cyclohexyl)methoxy)-N-(3-morpholino-phenyl) pyrimidin-2-amine]	< 50 nM
CN[C@H]1CC[C@H](COc2nc(Nc3ccc(N4CCOCC4)cc3)ncc2C2CC2)CC1 [Example 45, 5-cyclopropyl-4-(((1R,4R)-4-(methylamino)cyclo-hexyl)methoxy)-N-(4-morpholinophenyl) pyrimidin-2-amine]	50 to 200 nM
O[C@H]1CC[C@H](COc2nc(Nc3ccc(N4CCOCC4)cc3)nc(Cl)c2F)CC1 [Example 246, (1R,4R)-4-(((6-chloro-5-fluoro-2-((4-morpholinophenyl)amino)pyrimidin-4-yl)oxy)methyl)cyclohexan-1-ol]	> 400 nM
CC(=O)N[C@H]1CC[C@@H](COc2nc(Nc3cn(C(C)(C)C#N)nc3C)ncc2F)C1 [Example 180, N-((1S,3R)-3-(((2-((1-(2-cyanopropan-2-yl)-3-methyl-1H-pyrazol-4-yl)amino)-5-fluoropyrimidin-4-yl)oxy)methyl)cyclo-pentyl)acetamide]	< 50 nM
N[C@H]1CC[C@H](COc2nc(Nc3ccc(N4CCOCC4)cc3)ncc2C(F)(F)F)CC1 [Example 7, 4-(((1R,4R)-4-aminocyclohexyl)methoxy)-N-(4-morpholinophenyl)-5-(trifluoromethyl) pyrimidin-2-amine]	> 400 nM
Cc1nn(C(C)(C)C#N)cc1Nc1ncc(Cl)c(OCC2CC(C)OC(C)C2)n1 (centres unmarked) [Example 149, 2-(4-((5-chloro-4-((2,6-dimethyltetrahydro-2H-pyran-4-yl)methoxy)pyrimidin-2-yl)amino)-3-methyl-1H-pyrazol-1-yl)-2-methylpropanenitrile]	< 50 nM
Cn1ccc(Nc2nccc(OC[C@H]3CC[C@@H](N)CC3)n2)n1 [Example 3, 4-(((1S,4S)-4-aminocyclohexyl)methoxy)-N-(1-methyl-1H-pyrazol-3-yl) pyrimidin-2-amine]	50 to 200 nM
CC(C)n1cc(Nc2ncc(F)c(OC[C@H]3CC[C@H](O)CC3)n2)c(Cl)n1 [Example 238, (1R,4R)-4-(((2-((3-chloro-1-isopropyl-1H-pyrazol-4-yl)amino)-5-fluoropyrimidin-4-yl)oxy)methyl)cyclohexan-1-ol]	200 to 400 nM
CC(=O)N1CC2(CC(COc3nc(Nc4ccc(N5C[C@@H](C)O[C@@H](C)C5)cc4)ncc3F)C2)C1 [Example 97]	> 400 nM
Cc1nn(C(C)(C)C#N)cc1Nc1ncc(F)c(OCC2CCCC(O)CC2)n1 (single isomer, unassigned) [Example 263, 2-(4-((5-fluoro-4-((4-hydroxycycloheptyl)methoxy)pyrimidin-2-yl)amino)-3-methyl-1H-pyrazol-1-yl)-2-methylpropanenitrile]	< 50 nM
Cc1nn(C(C)(C)C#N)cc1Nc1ncc(F)c(OCC2CCC(OC(C)C)CC2)n1 (racemic) [Example 280, 2-(4-((5-fluoro-4-((4-isopropoxycyclohexyl)methoxy)pyrimidin-2-yl)amino)-3-methyl-1H-pyrazol-1-yl)-2-methylpropanenitrile]	50 to 200 nM
COc1nn(C(C)C)cc1Nc1ncc(F)c(OC[C@H]2CC[C@H](NC(C)=O)CC2)n1 [Example 207, N-((1R,4R)-4-(((5-fluoro-2-((1-isopropyl-3-methoxy-1H-pyrazol-4-yl)amino)pyrimidin-4-yl)oxy)methyl)cyclo-hexyl)acetamide]	50 to 200 nM
